Assay results taken from patent publication US20070004735A1, “Method for inhibiting the replication of herpes viruses” (priority 2003, published 2007).

Key:
[1] = tested on: HCMV AD169 clone with mutation in UL86 Q1223R; assay: Susceptibility (IC50) of resistant HCMV AD169 clone Q1223R; type: cell-based, Human cytomegalovirus; details: Human betaherpesvirus 5, read-out: IC 50, Q1223R
Description: (§1) The test compounds are employed as 50 millimolar (mM) solutions in dimethyl sulfoxide (DMSO). Ganciclovir®, Foscarnet® and Cidofovir® are used as reference compounds. After addition of in each case 2 μl of the 50, 5, 0.5 and 0.05 mM DMSO stock solutions to 98 μl portions of cell culture medium in row 2 A-H for duplicate determinations, 1:2 dilutions are carried out with 50 μl portions of medium up to row 11 of the 96-well plate. The wells in rows 1 and 12 each contain 50 μl of medium. 150 μl of a suspension of 1×10^4 cells (human prepuce fibroblasts [NHDF]) are then pipetted into each of the wells (row 1=cell control) and, in rows 2-12, a mixture of HCMV-infected and uninfected NHDF cells (M.O.I.=0.001-0.002), i.e. 1-2 infected cells per 1000 uninfected cells. Row 12 (without substance) serves as virus control. The final test concentrations are 250-0.0005 μM. The plates are incubated at 37° C./5% CO2 for 6 days, i.e. until all the cells are infected in the virus controls (100% cytopathogenic effect [CPE]). The wells are then fixed and stained by adding a mixture of formalin and Giemsa's dye (30 minutes), washed with double-distilled water and dried in a drying oven at 50° C. The plates are then assessed visually using an overhead microscope (plaque multiplier from Technomara).
(§2) For this purpose, NHDF cells are seeded in tissue culture vessels. 5×10^3 cells per well are seeded in 96-well plates and infected with cell-free HCMV AD169 with an moi of 0.03. The infections are cultivated under substance pressure which corresponds to 10 times the IC50 of the substance. Preferably, 30-100 96-well plates inoculated as described are made up. […] Finally, viral stocks are produced as described above and frozen. Serial ten-fold dilution of the virus-infected cells or of the cell culture supernatant of the virus-infected cells is followed by determination of the titer on 24-well plates of confluent NHDF cells after vital staining with neutral red. Finally, the susceptibility to various substances (IC50 determination) is determined as described above.
(§3) The HCMVAD169 mutants selected as described above are grown in vitro on human embryonic prepuce fibroblasts (NHDF cells) under substance pressure (10×IC50 HCMVAD169). After infection of the NHDF cells with a multiplicity of infection (M.O.I) of 0.01, the virus-infected cells are harvested 5-10 days later, and the total DNA is isolated from these cells with the aid of established standard methods (e.g. phenol extraction and ethanol precipitation). Qiagen Sequencing Services (Qiagen, Hilden) determined, after amplification of the viral UL86 gene by PCR, the DNA sequence, which was then transcribed into protein sequence. Compared with the initial strain HCMV AD169, the differences shown in table 2 were detectable in the protein sequence of the major capsid protein (UL86) in the resistant viruses. The IC50 values [μM] of various substances on these mutants compared with the initial strain are likewise indicated. (n.d.=not measured). […] Depending on the nature of the substance, certain mutations lead to various extents of resistance.

[2] = tested on: HCMV AD169 clone with mutation in UL86 V601M; assay: Susceptibility (IC50) of resistant HCMV AD169 clone V601M; type: cell-based, Human cytomegalovirus; details: Human betaherpesvirus 5, read-out: IC 50, V601M
Description: as §1, §2, §3

[3] = tested on: HCMV AD169 clone with mutation in UL86 E1320Q; assay: Susceptibility (IC50) of resistant HCMV AD169 clone E1320Q; type: cell-based, Human cytomegalovirus; details: Human betaherpesvirus 5, read-out: IC 50, E1320Q
Description: as §1, §2, §3

[4] = tested on: HCMV AD169 clone with mutation in UL86 P586T; assay: Susceptibility (IC50) of resistant HCMV AD169 clone P586T; type: cell-based, Human cytomegalovirus; details: Human betaherpesvirus 5, read-out: IC 50, P586T
Description: as §1, §2, §3

[5] = tested on: HCMV AD169 clone with mutation in UL86 P1189T; assay: Susceptibility (IC50) of resistant HCMV AD169 clone P1189T; type: cell-based, Human cytomegalovirus; details: Human betaherpesvirus 5, read-out: IC 50, P1189T
Description: as §1, §2, §3

[6] = tested on: HCMV AD169 clone with mutation in UL86 D563N; assay: Susceptibility (IC50) of resistant HCMV AD169 clone D563N; type: cell-based, Human cytomegalovirus; details: Human betaherpesvirus 5, read-out: IC 50, D563N
Description: as §1, §2, §3

[7] = tested on: HCMV AD169 clone with mutation in UL86 R435C; assay: Susceptibility (IC50) of resistant HCMV AD169 clone R435C; type: cell-based, Human cytomegalovirus; details: Human betaherpesvirus 5, read-out: IC 50, R435C
Description: as §1, §2, §3

[8] = tested on: HCMV AD169 clone with mutation in UL86 A1226T; assay: Susceptibility (IC50) of resistant HCMV AD169 clone A1226T; type: cell-based, Human cytomegalovirus; details: Human betaherpesvirus 5, read-out: IC 50, A1226T
Description: as §1, §2, §3

[9] = tested on: Human cytomegalovirus (HCMV); assay: Anti-HCMV cytopathogenicity test; type: cell-based; details: for IC50: Human betaherpesvirus 5, 144 h, NHDF cells, 6 days, cytopathogenic effect, read-out: IC50, antiviral activity in vitro; for SI (selectivity index): antiviral activity in vitro
Description: Human cytomegalovirus (HCMV), DavisSmith (ATCC VR807) or AD169 (ATCC VR538) strain, is grown in vitro on human embryonic prepuce fibroblasts (NHDF cells). After the NHDF cells have been infected with a multiplicity of infection (M.O.I.) of 0.01, the virus-infected cells are harvested 5-10 days later and stored in the presence of minimal essential medium (MEM), 10% fetal calf serum (FCS) with 10% DMSO at −80° C. A cell-free stock is produced by removing only the cell culture supernatant and immediately freezing at −80° C. After serial ten-fold dilutions of the virus-infected cells or of the cell culture supernatant of the virus-infected cells (cell-free virus), the titer is determined on 24-well plates of confluent NHDF cells after vital staining with neutral red.
as §1

[10] = tested on: HCMV AD169 clone with mutation in UL86 R682H; assay: Susceptibility (IC50) of resistant HCMV AD169 clone R682H; type: cell-based, Human cytomegalovirus; details: Human betaherpesvirus 5, read-out: IC 50, R682H
Description: as §1, §2, §3

[11] = tested on: HCMV AD169 clone with mutation in UL86 K1338N; assay: Susceptibility (IC50) of resistant HCMV AD169 clone K1338N; type: cell-based, Human cytomegalovirus; details: Human betaherpesvirus 5, read-out: IC 50, K1338N
Description: as §1, §2, §3

SMILES | IC50 [1] | IC50 [2] | IC50 [3] | IC50 [4] | IC50 [5] | IC50 [6] | IC50 [7] | IC50 [8] | IC50 [9] | SI (selectivity index) [9] | IC50 [10] | IC50 [11] | melting point
CCCCC(=O)Nc1ccc(NC(=O)Nc2ccc(F)c(Cl)c2)cc1 [Example 4, N-[4-({[(3-Chloro-4-fluorophenyl)amino]carbonyl}amino)phenyl]pentanamide] | 1 µM | 0.5 µM | 2 µM | 0.5 µM | 2 µM | 1 µM | > 60 µM | 0.8 µM | 0.08 µM | 750 | 0.5 µM | > 60 µM | 
CC1(C)CC(=O)NN=C1c1cccc(NC(=O)Nc2ccc(F)cc2F)c1 [Example 1, N-(2,4-Difluorophenyl)-N′-[3-(4,4-dimethyl-6-oxo-1,4,5,6-tetrahydro-3-pyridazinyl)phenyl]urea] | 20 µM | 20 µM | > 125 µM | 4 µM | > 125 µM | > 125 µM | 1.5 µM | > 125 µM | 1 µM | 125 | 20 µM | > 125 µM | 213 °C
CC1(C)CC(=O)NN=C1c1cc(NC(=O)Nc2cc(F)ccc2F)ccc1O [Example 2, N-(2,5-Difluorophenyl)-N′-[3-(4,4-dimethyl-6-oxo-1,4,5,6-tetrahydro-3-pyridazinyl)-4-hydroxyphenyl]urea] | 6 µM | 3 µM | 13 µM | 2 µM | > 125 µM | 6 µM | 0.5 µM | > 125 µM | 0.4 µM | 325 | 3 µM | > 125 µM | 
